What was measured:
[1] = system: male Sprague Dawley rats; assay: rat intra rectal mustard oil model of visceral pain; format: in vivo; details: behaviours counted 25 minutes
Method: All behavioural responses consistent with the presence of pain were determined following intra rectal injection of mustard oil in male Sprague Dawley rats. Typical behavioural responses consistent with the presence of pain following intra-colonic mustard oil injection include: arching, abdominal lifting, abdominal tensing, stretching, extending the rear leg (when lying down), raising and lowering the testicles, tip-toeing and writhing.
Male Sprague Dawley rats (130 g-160 g) were briefly sedated with 50% oxygen/50% carbon dioxide and 0.2 ml of 3% mustard oil injected into the colorectum, 1.5 cm from the anus. The anus was plugged with vaseline and animals placed in observational cages to which they had previously been acclimatised for 45 minutes prior to mustard oil injection. The number of visceral pain related behaviours, which consisted primarily of abdominal arching, were counted over a 25 minute period and the animals culled by cervical dislocation.
In separate studies, the effects of alosetron (0.1, 0.3 and 1.0 mg/kg n=10 per group), gabapentin (10, 30 and 100 mg/kg n=10 per group) and amitriptyline (3, 10 and 30 mg/kg n=9-10 per group) or vehicle (saline for alosetron and amitriptyline 10% 1-Methyl-2-pyrolidone in saline for gabapentin n=10 per study) given sub cutaneously 15 minutes prior to injection of 3% mustard oil were examined on pain behaviour. Results in FIGS. 4, 5 and 6 are expressed as mean±sem percentage of behaviours compared to vehicle treated animals and were statistically compared to vehicle treated animals using a one way ANOVA with Dunnett's comparison, p<0.05 considered significant.
The effect of SB742457 (0.03, 0.1, 1.0, 3.0 and 10 mg/kg, n=10 per group for the 0.03, 0.1 and 10 mg/kg groups, and n=20 for the 1.0 and 3.0 mg/kg groups) or vehicle (saline n=20) given orally 60 minutes prior to injection of mustard oil (3% mustard oil, 70% ethanol in saline) were examined on pain behaviour. The total number of visceral pain related behaviours, which consisted primarily of abdominal arching, were counted over a 25 minute period and the animals culled by cervical dislocation. Behaviours were normalised as the percentage of the vehicle group mean and expressed as mean+/−sem. Data was combined from two studies and normalised as the percentage of the vehicle group mean for each individual study and expressed as mean+/−sem for both studies. Percentage of behaviours compared to vehicle treated animals were analysed statistically using a one way ANOVA with Dunnett's comparison, p<0.05 considered significant, FIG. 10.
The effect of SB792988A (0.03, 0.1, 0.3, 1.0, 3.0 and 10 mg/kg, n=9 for 1.0 mg/kg, n=10 per group for the 0.03, 0.1 and 3.0 mg/kg groups, n=20 per group for the 0.3 and 10 mg/kg groups) or vehicle (saline n=20) given orally 60 minutes prior to injection of mustard oil (3% mustard oil, 70% ethanol in saline) were examined on pain behaviour. The total number of visceral pain related behaviours, which consisted primarily of abdominal arching, were counted over a 25 minute period and the animals culled by cervical dislocation. Behaviours were normalised as the percentage of the vehicle group mean and expressed as mean+/−sem. Data was combined from two studies and normalised as the percentage of the vehicle group mean for each individual study and expressed as mean+/−sem for both studies. Percentage of behaviours compared to vehicle treated animals were analysed statistically using a one way ANOVA with Dunnett's comparison, p<0.05 considered significant, FIG. 11.

[2] = system: rats; assay: Chronic Constriction Injury (CCI) model of neuropathic pain in rats (mechanical allodynia, Von Frey hairs); format: in vivo, rat; details: 30 mg/kg b.i.d. po
Method: Under Isoflurane anaesthesia, the sciatic nerve in the left leg of the rat was exposed at mid thigh level and 4 loose ligatures of Chromic 4.0 gut tied around it. The wound was closed and secured with staples. The Sham operated animals underwent the same surgical technique except that the nerve was not ligated. […] The presence of mechanical (tactile) allodynia was assessed using the manual application of Von Frey hair monofilaments (Stoelting, Wood Dale, Ill., USA). Animals were placed in clear Perspex boxes on a raised perforated metallic platform, from below which the monofilaments were applied in ascending order to the plantar region of the hind paw (range: 1.4 g-26 g). Each hair was applied for approx. 3-5 seconds until a withdrawal response was observed. The lowest hair to give a withdrawal was recorded as the response after confirmation with reapplication of lower and/or higher hairs within the range tested.
All data are expressed as mean±s.e.m. Statistical analysis was carried out using Repeated Measures ANOVA (Statistica Version 6) to compare the vehicle treated groups with the drug treated groups (P<0.05 considered significant). Area Under Curve (AUC) calculations were performed within Excel and statistical analysis was carried out using a one-way ANOVA followed by Fischer LSD post-hoc test (Statistica Version 6) to compare the vehicle treated CCI and Sham groups with the drug treated groups (P<0.05 considered significant). Data recorded in Excel (Microsoft XP) and graphs produced in GraphPad Prism (Version 4).
By 8 days post-surgery neuropathy was beginning to develop as mechanical allodynia (assessed using mVFHs) was evident in all CCI operated groups compared to the Sham operated animals. This was maintained as a stable baseline until day 23 post-surgery (FIG. 12), when the animals were randomised and then chronically dosed with either SB742457 (10 mg/kg b.i.d. po), gabapentin (30 mg/kg b.i.d. po) or vehicle (1% methylcellulose; b.i.d. po) for 8 days (days 26-33 post-surgery). […] Three days after cessation of treatment the withdrawal thresholds of the drug treated groups had decreased back towards vehicle treated baseline levels.

[3] = system: Random Hooded rats; assay: rat joint pain model of chronic inflammatory pain (intra-articular FCA, hind paw weight bearing); format: in vivo; details: for Statistics for hypersensitivity data (weight bearing), significance vs vehicle, Day 14: Day 14 post FCA; for Statistics for hypersensitivity data (weight bearing), significance vs vehicle, Day 15: Day 15 post FCA; for Statistics for hypersensitivity data (weight bearing), significance vs vehicle, Day 17: Day 17 post FCA
Method: Random Hooded rats, 150-180 g, obtained from Charles River UK, were anaesthetised under gaseous anaesthetic and the area surrounding the left and right knee joint shaved and cleaned as for aseptic surgery. Animals were injected with 150 μl of FCA into the left knee joint (intra-articular injection). Animals were immediately allowed to recover from anaesthetic in a warmed/oxygenated environment until being returned to their home cage on paper bedding. No further post-op care was provided.
(§1) Rats were tested prior to surgery and from 18 h post FCA (minimum of once weekly) for weight bearing (g) and joint diameter (mm). Weight bearing is measured by the animal's ability to place body weight across both hind paws on a Dual Channel Weight Averager which was calibrated each day prior to use using a 10 g weight (Rat capacitance tester—Linton Instruments). Hind paw weight bearing data was calculated and expressed as the percentage of the contralateral paw.
All data were expressed as mean±s.e.m.
(§2) Prior to FCA intra-articular injection into the left knee, rats display even weight bearing. By day 1 post-insult weight bearing had shifted such that the majority of the body weight was transmitted through the contralateral limb. By day 10 this effect was maintained and at this point animals were randomised across treatment groups. Once daily dosing with vehicle, SB742457 or celecoxib began on day 13 and continued up to and including day 17.
as §1, with “100” for “10”
as §2, with “SB792988A” for “SB742457”, “17. […] AUC was calculated using Microsoft Excel.” for “17.”

[4] = system: rats; assay: FCA induced hypersensitivity rat model (intraplantar FCA, weight bearing); format: in vivo; details: 1 hour post dose; for weight bearing % reversal: 10 mg/kg p.o., 24 hrs after FCA
Method: (§3) Naïve weight bearing readings were taken. The hypersensitivity to pain was measured using the Rat incapacitance tester (Linton instruments). All rats (180-220 g) received an intraplantar injection of 100 ul of FCA (Freund's complete adjuvant) into the left hind paw. The FCA was sonicated for 15 minutes prior to use. 24 hrs after administration of the FCA, pre-dose weight bearing readings were taken. All animals were then ranked and randomised for dosing according to their FCA window (predose difference in grams—naïve difference in grams). Rats with FCA window less than 30 were excluded from the study.
Animals were then dosed orally with either vehicle, SB42457 (0.01, 0.1, 1 and 10 mg/kg p.o.) or celecoxib (10 mg/kg p.o.) as appropriate according to ranking and randomisation. Animals were assessed in the weight bearing apparatus 1 hour post dose.
The study was blind and randomised by FCA window using the Latin square method. % reversals were calculated by using the naïve, pre-dose and post dose values as follows: % Reversal=[(Pre-dose−Post-dose)/(Pre-dose−Naïve)]×100.
Graphs were plotted using Prism3. Statistical analysis was carried out using ANOVA and Fischer LSD test from statistical package Statistica 6.
In this study a positive control was also tested (celecoxib).
as §3, with “(200-220” for “(180-220”
Animals were then dosed orally with vehicle, SB-792988-A (0.01, 0.1, 1 and 10 mg/kg p.o.), SB-399885-A (10 mg/kg p.o.) or celecoxib (10 mg/kg p.o.) as appropriate according to ranking and randomisation. Animals were assessed in the weight bearing apparatus 1 hour post dose.
Graphs and were plotted using Prism3. Statistical analysis was carried out using ANOVA and Fischer LSD test from statistical package Statistica 6.

[5] = 10 mg/kg sub cutaneously 15 minutes prior to 3% mustard oil
[6] = 30 mg/kg sub cutaneously 15 minutes prior to 3% mustard oil
[7] = 30 mg/kg oral once daily from day 13, SB742457 study
[8] = 30 mg/kg oral once daily from day 13, SB792988A study

SMILES: Cc1[nH]cnc1CN1CCc2c(c3ccccc3n2C)C1=O [alosetron, reference compound]
- reduction in behaviours compared to vehicle treated animals ([1]; 0.1 mg/kg sub cutaneously 15 minutes prior to 3% mustard oil): 56%
- reduction in behaviours compared to vehicle treated animals ([1]; 0.3 mg/kg sub cutaneously 15 minutes prior to 3% mustard oil): 56%
- reduction in behaviours compared to vehicle treated animals ([1]; 1.0 mg/kg sub cutaneously 15 minutes prior to 3% mustard oil): 54%

SMILES: NCC1(CC(=O)O)CCCCC1 [gabapentin, reference compound]
- reduction in behaviours compared to vehicle treated animals [1, 5]: 28%
- reduction in behaviours compared to vehicle treated animals [1, 6]: 50%
- reduction in behaviours compared to vehicle treated animals ([1]; 100 mg/kg sub cutaneously 15 minutes prior to 3% mustard oil): 69%
- reversal of mechanical allodynia after 5 days of dosing ([2]; after 5 days of dosing): not significantly different to Sham levels
- reversal of mechanical allodynia after 8 days of dosing ([2]; after 8 days of dosing): maximal reversal (P<0.001) back to Sham levels

SMILES: CN(C)CCC=C1c2ccccc2CCc2ccccc21 [amitriptyline, reference compound]
- reduction in behaviours compared to vehicle treated animals ([1]; 3 mg/kg sub cutaneously 15 minutes prior to 3% mustard oil): 43%
- reduction in behaviours compared to vehicle treated animals [1, 5]: 73%
- reduction in behaviours compared to vehicle treated animals [1, 6]: 91%

SMILES: Cc1ccc(-c2cc(C(F)(F)F)nn2-c2ccc(S(N)(=O)=O)cc2)cc1 [celecoxib, reference compound]
- Statistics for hypersensitivity data, significance vs vehicle, AUC ([3]; 30 mg/kg oral once daily days 13-17, AUC, SB742457 study): *** (*** = p < 0.001)
- Statistics for hypersensitivity data (weight bearing), significance vs vehicle, Day 13 ([3]; 30 mg/kg oral once daily from day 13, Day 13 post FCA, SB742457 study): * (* = p < 0.05)
- Statistics for hypersensitivity data (weight bearing), significance vs vehicle, Day 14 [3, 7]: *** (*** = p < 0.001)
- Statistics for hypersensitivity data (weight bearing), significance vs vehicle, Day 14 [3, 8]: * (* = p < 0.05)
- Statistics for hypersensitivity data (weight bearing), significance vs vehicle, Day 15 [3, 7]: *** (*** = p < 0.001)
- Statistics for hypersensitivity data (weight bearing), significance vs vehicle, Day 15 [3, 8]: *** (*** = p < 0.001)
- Statistics for hypersensitivity data (weight bearing), significance vs vehicle, Day 16 ([3]; 30 mg/kg oral once daily from day 13, Day 16 post FCA, SB792988A study): *** (*** = p < 0.001)
- Statistics for hypersensitivity data (weight bearing), significance vs vehicle, Day 17 [3, 7]: *** (*** = p < 0.001)
- Statistics for hypersensitivity data (weight bearing), significance vs vehicle, Day 17 [3, 8]: *** (*** = p < 0.001)
- weight bearing % reversal ([4]; Table 5): 74.81 ± 8.79%
- weight bearing % reversal ([4]; Table 7): 73.00 ± 6.01%

SMILES: COc1ccc(S(=O)(=O)Nc2cc(Cl)cc(Cl)c2OC)cc1N1CCNCC1.Cl [SB399885A, N-(3,5-dichloro-2-methoxy-phenyl)-4-methoxy-3-piperazin-1-yl-benzenesulfonamide hydrochloride, reference compound]
- weight bearing % reversal ([4]; Table 7): 15.26 ± 5.70%
- effect on FCA induced hypersensitivity ([4]; p.o., intraplantar FCA): no effect
